Measurements as given in patent US6645938B2, “Protection against ischemia and reperfusion injury” (ZymoGenetics, Inc., priority 2000, dated 2003).

Columns and labels:
mouse vas deferens = assay: Mouse vas deferens (m.v.d.) contractility assay; conditions: 6000 nM glibenclamide with 1000 nM compound-D
Experimental: Glibenclamide, a KATP channel blocker, blocked the inhibition of contraction of mouse vas deferens induced by compound-D SEQ ID NO:1. With reference to FIG. 8, the effect of administration of 1000 nM compound-D SEQ ID NO:1 alone (open bar) versus 1000 nM compound-D SEQ ID NO:1 with 6000 nM glibenclamide (hatched bar) on contractility of mouse vas deferens (m.v.d.) (n=6) is shown. Glibenclamide restored m.v.d. contractions which compound-D SEQ ID NO:1 had suppressed. […] (n=2).

[1] = test system: isolated perfused rat heart; assay: Isolated perfused rat heart (Langendorff), 20 min global ischemia and 120 min reperfusion after 24 h pretreatment; format: in vivo
Experimental: Compound-D SEQ ID NO:1, at a dose of 2 mg/kg and solubilized as described above, was administered by tail vein injection into rats weighing between about 350-400 g (number of animals (n)=6). Control rats (n=6) were injected in the same manner with an equal volume of 0.9% NaCl. After 24 h, the hearts from both treated and control animals were excised and perfused in a modified Langendorff perfusion apparatus at 37° C. using oxygenated Krebs-Henseleit buffer as the perfusate, as known to one skilled in the art. Coronary perfusion pressure was maintained at […] by regulating coronary flow. All hearts were paced at […] (300 beats per minute, bpm) except during ischemia. A saline-filled balloon was inserted in the left ventricle to measure developed pressure (DP) and end-diastolic pressure (EDP) in mm Hg. After 15 min equilibration, both groups were subjected to 20 min zero-flow global ischemia, and then were reperfused for 120 min.
Left ventricles were isolated and divided into three segments along their short axis, stained with triphenyltetrazolium chloride, and stored in formalin. Infarct size was measured on digitized images and expressed as a percentage of myocardium. Data were expressed as mean plus or minus standard error of the mean (±SEM) and were analyzed using a paired Student's t-Test. Confidence limits were established at 95%. […]

SMILES	effect on inhibition of contraction induced by compound-D (mouse vas deferens)	effect of naltrexone on the cardioprotective effects of compound-D ([1]; FIG. 7, naltrexone 3 mg/kg combined with compound-D 2.0 mg/kg, 24 h prior to ischemia)	infarct size ([1]; FIG. 7 naltrexone study, pretreated 24 h prior to ischemia, compound-D 2.0 mg/kg, naltrexone 3 mg/kg, control about 27%)
COc1ccc(Cl)cc1C(=O)NCCc1ccc(S(=O)(=O)NC(=O)NC2CCCCC2)cc1 [Glibenclamide]	blocked		
O=C1CC[C@@]2(O)[C@H]3Cc4ccc(O)c5c4[C@@]2(CCN3CC2CC2)[C@H]1O5 [naltrexone]		did not block	about 14.5%
